The record followed here is PubChem BioAssay AID2060597 (Global Health Medicines R&D, GSK, 2025).

The structures appear in SMILES notation. Activity calls are given as the source filed them.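 The calls were made as follows: active = blocking male or female gamete formation with potency of about 10 µM or stronger; inactive = the rest.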 Bounds are passed on as bounds.

Assay [1] concerns P. falciparum 3D7A gametocytes, male exflagellation, 48 h. Kind of assay: transmission-blocking activity on Pf gametocytes – dual gamete formation, strain 3D7A, dose response (AID 2060597).
Experiment in assay [2]: as above
The conditions noted are these: P. falciparum 3D7A gametocytes, male exflagellation, 48 h.

Regarding `O=C(/C=C/c1n[nH]c2ccccc12)N1CCN(c2cnccn2)CC1`, the IC50 – broadly, the midpoint of a concentration-inhibition curve – in assay [1] was greater than 5.01 µM.

In turn, `Cc1cc(Cl)ccc1OCC(=O)N1CCc2c(cnc(C)c2CNC(=O)c2ccc(=O)[nH]n2)C1` showed a half-maximal inhibitory concentration (IC50) in assay [1] greater than 10 µM. Take `O=C(CCN=C1NS(=O)(=O)c2ccccc21)Nc1ccc(S(=O)(=O)N2CCCC2)cc1`: the IC50 in assay [1] is greater than 10 µM. On the same count and under the same terms, the same measure for `COc1ccc2oc(C(=O)NC3CCC(Oc4ncccn4)CC3)cc2c1` (stereo not drawn): greater than 10 µM; for `O=C(CCCc1c[nH]c2ccccc12)N1CCN(c2ccc(N3CCOCC3)nn2)CC1`: greater than 10 µM; for `N#Cc1cccc(NC(=O)CNc2ccccc2C(=O)NC2CC2)c1`: greater than 10 µM. As to `O=C(NCCCN1CCc2ccccc21)c1ccc2c(=O)n(Cc3ccccn3)cnc2c1`, the outcome in assay [2] was active. In turn, `O=C1CSc2ccc(C(=O)Nc3ccc(-c4nnc5n4CCCCC5)cc3)cc2N1` displayed an IC50 in assay [1] greater than 10 µM. The same measure, in the same setting: the same measure for `Cn1cccc1C1CCCN1CC(=O)Nc1ccc(S(=O)(=O)N2CCOCC2)cc1` (stereo not drawn): greater than 10 µM; for `Cc1nn(C2CCS(=O)(=O)C2)c(C)c1CN(C)C(=O)CN1C(=O)NC2(CCCCC2C)C1=O` (stereo not drawn): greater than 10 µM. The same measure, in the same setting: in the case of `COc1ccc(-c2ccc(CNC(=O)c3cc(C(=O)NC(C)C)ccc3Cl)cc2)cn1` it was greater than 10 µM; in that of `CC(C)Oc1ccc(-c2nnc(Oc3cccc4c3CCN(CCC(N)=O)CC4)s2)cc1C#N`, greater than 10 µM; in that of `N#Cc1c(N)n[nH]c1CCCNC(=O)c1ccc(Cl)c(S(=O)(=O)N2CCCC2)c1`, greater than 10 µM. `COc1ccc(N2CCN(C(=O)c3csc(Nc4ccccc4S(C)(=O)=O)n3)CC2)nc1` returned an IC50 in assay [1] greater than 10 µM.

The compound `O=C(c1cc2ccccc2[nH]1)N1CCC2(CC(Nc3ccncn3)C2)C1` (stereo not drawn) showed an IC50 in assay [1] greater than 10 µM. The same measure, in the same setting: in the case of `O=C1CCCN1c1ccc(S(=O)(=O)N2CCN(S(=O)(=O)c3ccccc3)CC2)cc1` it was greater than 10 µM. In turn, `O=C(/C=C/c1n[nH]c2ccccc12)Nc1ccc(C(=O)NCCN2CCOCC2)cc1` registered an IC50 in assay [1] greater than 10 µM. The same measure, in the same setting: in the case of `O=C(CCCc1ncc(-c2ccccc2)o1)N1CCOC2CCCC21` (stereo not drawn) it was greater than 10 µM; in that of `Cc1cc(-c2cnc(N3CCn4c(nnc4C4CC4)C3)nc2-c2ccncc2)on1`, greater than 10 µM; in that of `Cc1ccc2nc(CCNC(=O)CCS(=O)(=O)c3ccc4c(c3)CC(=O)N4C)[nH]c2c1`, greater than 10 µM. Same read-out and setting: the same measure for `O=C(Nc1cccnc1)C1CCN(c2ccc(-c3ccco3)nn2)CC1`: greater than 10 µM; for `O=C(Nc1ccc(N2CCCC2)nc1)N1CCN(c2cnccn2)CC1`: greater than 10 µM. On the same count and under the same terms, in the case of `NC(=O)CC1CCN(C(=O)c2sc3sccc3c2Cl)CC1` it was greater than 10 µM. Compound `CN(C(=O)C[C@@H]1CCN(C(=O)C2CC2)C1)c1ccc(-c2ccc(C#N)cc2)cc1` had an IC50 in assay [1] greater than 10 µM. The same measure, in the same setting: the same measure for `O=C(COc1ccc(Br)cc1F)N1CCN(c2cnccn2)CC1`: greater than 10 µM. On the same count and under the same terms, in the case of `CCN(CC)c1ccc(C(=O)COc2ccc3c(c2)CCNCC3)cc1` it was greater than 10 µM; in that of `CCN(C(=O)C=Cc1ccc(S(=O)(=O)N2CCc3ccccc32)cc1)C1CCS(=O)(=O)C1` (stereo not drawn), greater than 10 µM.

In assay [1], `O=C(CCn1nnc2cc(S(=O)(=O)N3CCCC3)ccc21)N1CCN(c2ccccn2)CC1` displayed an IC50 greater than 10 µM. On the same count and under the same terms, the same measure for `Cc1cccc(-c2nn(Cc3ccc(C(=O)NCCCO)cc3)c(=O)cc2N2CCCC(CO)C2)c1` (stereo not drawn): greater than 10 µM; for `CCCOc1cncc(S(=O)(=O)c2ccc3c(c2)CCN(C2CCC2)CC3)c1`: greater than 10 µM; for `COc1ccc(NC(=O)c2ccc3c(=O)n(Cc4ccccn4)cnc3c2)cc1N1CCN(C)CC1`: greater than 10 µM. Regarding `O=C(Nc1nnc(-c2ccccc2)s1)N1CCCN(c2ncccn2)CC1`, the IC50 in assay [1] is greater than 10 µM. On the same count and under the same terms, the same measure for `COc1ccc(C(=O)N2CCN(c3ccc(-n4cccn4)nn3)CC2)cc1OC`: greater than 10 µM.
